Experimental data: PubChem BioAssay AID256 (DTP/NCI, 2004)
Values joined by “and” are separate entries in the source; they are usually repeats but may differ in a detail not shown here. Identical values can stand only once. Toxic doses and inconclusive results are not listed. The calls were made as follows: active = survival T/C of 150% or more; inactive = T/C below 125% in these data.

Tested on: CD2F1 mice, L1210 leukemia ip, survival T/C
Test: NCI In Vivo Anticancer Drug Screen. Data for tumor model L1210 Leukemia (intraperitoneal) in CD2F1 (CDF1) mice
Conditions: higher = longer survival
Procedure, shortened: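 Compound-dosed mice with transplantable tumor versus matched vehicle controls; endpoint ratio T/C reported.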

[1] = endpoint: mean survival time, dose: 100.0 mg/kg/injection, schedule: Q04DX003 (ip), vehicle: other
[2] = endpoint: mean survival time, dose: 200.0 mg/kg/injection, schedule: Q04DX003 (ip), vehicle: other
[3] = endpoint: mean survival time, dose: 400.0 mg/kg/injection, schedule: Q04DX003 (ip), vehicle: other
[4] = endpoint: mean survival time, dose: 100.0 mg/kg/injection, schedule: Q01DX009 (ip), vehicle: saline with Tween-80
[5] = endpoint: mean survival time, dose: 200.0 mg/kg/injection, schedule: Q01DX009 (ip), vehicle: saline with Tween-80
[6] = endpoint: mean survival time, dose: 400.0 mg/kg/injection, schedule: Q01DX009 (ip), vehicle: saline with Tween-80
[7] = endpoint: mean survival time, dose: 100.0 mg/kg/injection, schedule: Q04DX003 (ip), vehicle: saline with Tween-80
[8] = endpoint: mean survival time, dose: 200.0 mg/kg/injection, schedule: Q04DX003 (ip), vehicle: saline with Tween-80
[9] = endpoint: mean survival time, dose: 400.0 mg/kg/injection, schedule: Q04DX003 (ip), vehicle: saline with Tween-80
[10] = endpoint: mean survival time, dose: 100.0 mg/kg/injection, schedule: Q01DX001 (ip), vehicle: saline
[11] = endpoint: mean survival time, dose: 100.0 mg/kg/injection, schedule: Q04DX003 (ip), vehicle: saline
[12] = endpoint: mean survival time, dose: 200.0 mg/kg/injection, schedule: Q01DX001 (ip), vehicle: saline
[13] = endpoint: mean survival time, dose: 200.0 mg/kg/injection, schedule: Q04DX003 (ip), vehicle: saline
[14] = endpoint: mean survival time, dose: 400.0 mg/kg/injection, schedule: Q01DX001 (ip), vehicle: saline
[15] = endpoint: mean survival time, dose: 100.0 mg/kg/injection, schedule: Q01DX001 (ip), vehicle: saline with Tween-80
[16] = endpoint: mean survival time, dose: 200.0 mg/kg/injection, schedule: Q01DX001 (ip), vehicle: saline with Tween-80
[17] = endpoint: mean survival time, dose: 400.0 mg/kg/injection, schedule: Q01DX001 (ip), vehicle: saline with Tween-80
[18] = endpoint: mean survival time, dose: 100.0 mg/kg/injection, schedule: Q04DX002 (ip), vehicle: saline with Tween-80
[19] = endpoint: mean survival time, dose: 200.0 mg/kg/injection, schedule: Q04DX002 (ip), vehicle: saline with Tween-80
[20] = endpoint: mean survival time, dose: 400.0 mg/kg/injection, schedule: Q04DX002 (ip), vehicle: saline with Tween-80

Measured: T/C

CCOC1CC(C)C=CO1 (configuration not stated)
inactive: endpoint: mean survival time, dose: 100.0 mg/kg/injection, schedule: Q01DX001 (ip), vehicle: saline + alcohol 108 % of control | endpoint: mean survival time, dose: 200.0 mg/kg/injection, schedule: Q01DX001 (ip), vehicle: saline + alcohol 104 % of control | endpoint: mean survival time, dose: 400.0 mg/kg/injection, schedule: Q01DX001 (ip), vehicle: saline + alcohol 96 % of control

CCOn1nc(-c2ccccc2)oc1=O
inactive: [1] 96 % of control | [2] 93 % of control | [3] 116 % of control

CCCN(CCC)C(=O)C(=O)OCC
inactive: endpoint: mean survival time, dose: 6.25 mg/kg/injection, schedule: Q01DX009 (ip), vehicle: saline 90 % of control | endpoint: mean survival time, dose: 12.5 mg/kg/injection, schedule: Q01DX009 (ip), vehicle: saline 96 % of control | endpoint: mean survival time, dose: 25.0 mg/kg/injection, schedule: Q01DX009 (ip), vehicle: saline 93 % of control

CC1(C)CC(=O)C2=C(C1)OC1=C(C(=O)CC(C)(C)C1)C2c1ccccc1[N+](=O)[O-]
inactive: [4] 100 % of control | [5] 95 % of control | [6] 94 % of control

O=C(c1ccccc1)c1cc(-c2ccccc2)nc2ccccc2c2ccccc2[nH]1
inactive: endpoint: mean survival time, dose: 100.0 mg/kg/injection, schedule: Q01DX001 (ip), vehicle: Klucel (hydroxypropylcellulose) (HPC) 93 % of control | endpoint: mean survival time, dose: 200.0 mg/kg/injection, schedule: Q01DX001 (ip), vehicle: Klucel (hydroxypropylcellulose) (HPC) 91 % of control | endpoint: mean survival time, dose: 400.0 mg/kg/injection, schedule: Q01DX001 (ip), vehicle: Klucel (hydroxypropylcellulose) (HPC) 100 % of control

O=C(c1ccc(Cl)cc1)C(O)c1ccc(Cl)cc1 (configuration not stated)
inactive: [4] 93 % of control | [7] 100 % of control | [5] 98 % of control | [8] 96 % of control | [6] 107 % of control | [9] 91 % of control

CCCCOc1ccc(OCCCC)cc1
inactive: [1] 114 % of control | [2] 97 % of control | [3] 101 % of control

CS(=O)(=O)OCC1C(COS(C)(=O)=O)N(S(C)(=O)=O)S(=O)N1S(C)(=O)=O (configuration not stated)
inactive: [10] 100 % of control | [11] 111 % of control | [12] 95 % of control | [13] 108 % of control | [14] 94 % of control | endpoint: mean survival time, dose: 400.0 mg/kg/injection, schedule: Q04DX003 (ip), vehicle: saline 91 % of control

N#CC1(OC2OC(CO)C(O)C(O)C2O)C=CC(O)C1O (configuration not stated)
inactive: [10] 101 % of control | [12] 101 % of control | [14] 98 % of control

CN(N)c1nc(N)c(C#N)c(C#N)c1C#N
inactive: endpoint: mean survival time, dose: 50.0 mg/kg/injection, schedule: Q01DX001 (ip), vehicle: saline 97 % of control | [10] 101 % of control | [12] 101 % of control | [14] 97 % of control

Cc1cc(C)c(C)cc1C
inactive: [4] 92 % of control | [7] 96 % of control | [5] 96 % of control | [8] 100 % of control | [6] 88 % of control | [9] 94 % of control

N#Cc1cn(C2OC(CO)C(O)C2O)n2ccnc12 (configuration not stated)
inactive: endpoint: median survival time, dose: 12.5 mg/kg/injection, schedule: Q01DX005 (ip), vehicle: water 118 % of control | endpoint: median survival time, dose: 25.0 mg/kg/injection, schedule: Q01DX005 (ip), vehicle: water 102 % of control | endpoint: median survival time, dose: 50.0 mg/kg/injection, schedule: Q01DX005 (ip), vehicle: water 116 % of control | endpoint: median survival time, dose: 100.0 mg/kg/injection, schedule: Q01DX005 (ip), vehicle: water 109 % of control | endpoint: median survival time, dose: 200.0 mg/kg/injection, schedule: Q01DX005 (ip), vehicle: water 115 % of control

Nc1ncnc2c1c1c(=O)[nH]cnc1n2C1OC(CO)C(O)C1O (configuration not stated)
inactive: endpoint: mean survival time, dose: 6.25 mg/kg/injection, schedule: Q01DX005 (ip), vehicle: Klucel (hydroxypropylcellulose) (HPC) 98 % of control | endpoint: mean survival time, dose: 12.5 mg/kg/injection, schedule: Q01DX005 (ip), vehicle: Klucel (hydroxypropylcellulose) (HPC) 104 % of control | endpoint: mean survival time, dose: 25.0 mg/kg/injection, schedule: Q01DX005 (ip), vehicle: Klucel (hydroxypropylcellulose) (HPC) 108 % of control | endpoint: mean survival time, dose: 50.0 mg/kg/injection, schedule: Q01DX005 (ip), vehicle: Klucel (hydroxypropylcellulose) (HPC) 115 % of control | endpoint: mean survival time, dose: 100.0 mg/kg/injection, schedule: Q01DX005 (ip), vehicle: Klucel (hydroxypropylcellulose) (HPC) 120 % of control

Cc1ccc(S(=O)(=O)n2nc(C3OC(CO)C(O)C3O)c(O)c2C(N)=O)cc1 (configuration not stated)
inactive: endpoint: median survival time, dose: 44.6 mg/kg/injection, schedule: Q01DX005 (ip), vehicle: saline 120 % of control | endpoint: median survival time, dose: 89.3 mg/kg/injection, schedule: Q01DX005 (ip), vehicle: saline 120 % of control

COC1OC(CCl)C(Cl)C(Cl)C1O (configuration not stated)
inactive: [15] 102 % of control | [16] 96 % of control | [17] 102 % of control

CC1C(=O)OC2C1CCC1(C)C(O)OC(=O)C(C)C21 (configuration not stated)
inactive: [18] 104 % of control and 96 % of control | [19] 100 % of control and 108 % of control | [20] 100 % of control and 104 % of control

CCCCC1(C(=O)OCC)SCCCS1
inactive: endpoint: mean survival time, dose: 50.0 mg/kg/injection, schedule: Q04DX002 (ip), vehicle: saline with Tween-80 94 % of control | [18] 105 % of control | [19] 97 % of control

O=c1[nH]cc(Br)cc1[N+](=O)[O-]
inactive: [18] 101 % of control | [19] 112 % of control | [20] 108 % of control

CC1(C)C=CC(C)(C)c2c(NS(=O)(=O)c3ccccc3)ccc(NS(=O)(=O)c3ccccc3)c21
inactive: [7] 98 % of control | [9] 96 % of control

COC(=O)C(Cc1ccc(N(CCCl)CCCl)cc1)N=NNc1nc[nH]c1C(N)=O (configuration not stated)
inactive: endpoint: mean survival time, dose: 88.0 mg/kg/injection, schedule: Q01DX001 (ip), vehicle: steriod suspending solution 116 % of control | endpoint: mean survival time, dose: 133.0 mg/kg/injection, schedule: Q01DX001 (ip), vehicle: steriod suspending solution 115 % of control | endpoint: mean survival time, dose: 300.0 mg/kg/injection, schedule: Q01DX001 (ip), vehicle: steriod suspending solution 116 % of control

ClCCN(CCCl)c1ccc(N=Nc2ccccc2)cc1
inactive: endpoint: mean survival time, dose: 100.0 mg/kg/injection, schedule: Q04DX003 (ip), vehicle: Klucel (hydroxypropylcellulose) (HPC) 102 % of control | endpoint: mean survival time, dose: 200.0 mg/kg/injection, schedule: Q04DX003 (ip), vehicle: Klucel (hydroxypropylcellulose) (HPC) 113 % of control | endpoint: mean survival time, dose: 400.0 mg/kg/injection, schedule: Q04DX003 (ip), vehicle: Klucel (hydroxypropylcellulose) (HPC) 113 % of control

CCCNC(C)(C)C(SS)c1ccc(C(F)(F)F)cc1 (configuration not stated)
inactive: [2] 100 % of control | [3] 90 % of control

OCC1OC(n2cnc3c(NCCc4ccccc4)ncnc32)C(O)C1O (configuration not stated)
inactive: endpoint: mean survival time, dose: 12.5 mg/kg/injection, schedule: Q01DX005 (ip), vehicle: other 101 % of control | endpoint: mean survival time, dose: 25.0 mg/kg/injection, schedule: Q01DX005 (ip), vehicle: other 110 % of control | endpoint: mean survival time, dose: 50.0 mg/kg/injection, schedule: Q01DX005 (ip), vehicle: other 92 % of control

O=C(CNC(=O)Nc1ccc(F)cc1)NNC(=O)Nc1ccc(Cl)c([N+](=O)[O-])c1
inactive: [5] 92 % of control | [6] 88 % of control

Cc1cc(=S)n(C)c2ccccc12
inactive: [4] 94 % of control | [7] 93 % of control | [5] 93 % of control | [8] 96 % of control | [6] 98 % of control | [9] 88 % of control

CCCCCCCCCC(=O)N1CC[N+](C)(C)CC1
inactive: endpoint: mean survival time, dose: 5.0 mg/kg/injection, schedule: Q01DX001 (ip), vehicle: saline 102 % of control | endpoint: mean survival time, dose: 10.0 mg/kg/injection, schedule: Q01DX001 (ip), vehicle: saline 105 % of control | endpoint: mean survival time, dose: 20.0 mg/kg/injection, schedule: Q01DX001 (ip), vehicle: saline 104 % of control

CC1(C)C(C#N)C(=O)N(Cc2ccccc2)C(=O)C1C#N (configuration not stated)
inactive: endpoint: mean survival time, dose: 50.0 mg/kg/injection, schedule: Q01DX009 (ip), vehicle: saline with Tween-80 98 % of control | [4] 107 % of control | [5] 98 % of control

CCOc1cccc(Cc2cn(Cc3cccc(NC(=O)Nc4cccc(S(=O)(=O)F)c4)c3)c(=O)[nH]c2=O)c1
inactive: [15] 95 % of control | [16] 95 % of control | [17] 94 % of control

CC(C)(CNC1=NCCO1)NC1=NCCO1
inactive: [11] 104 % of control | [13] 104 % of control

NC(=O)C12CCCCC1CCC2 (configuration not stated)
inactive: [7] 103 % of control | [8] 96 % of control | [9] 97 % of control

COCC1C(N)C(C)NC(Cl)C1C#N (configuration not stated)
inactive: [4] 97 % of control | [7] 95 % of control | [5] 97 % of control | [8] 100 % of control | [9] 100 % of control
